Measurements from ChEMBL document CHEMBL3885861, “Open TG-GATES”.
*1 amine or outer side, *2 acyl side, *3 side chain or, on linkers, in order; H or OH if unused. Where a SMILES comes first, the peptide text is derived from it. Bridges are numbered along the chain shown (N, C = ends). [ ]: non-standard residue; d: D form. Trp(2-yl) = O=C([C@H](Cc1c([*:3])[nH]c2ccccc12)N[*:1])[*:2]; Leu(4R-OH,5-OH) = C[C@](O)(CO)C[C@H](N)C(=O)O; cisHyp = O=C(O)[C@@H]1C[C@H](O)CN1

Species: Rattus norvegicus
Experiment: Open TG-GATES - Regimen: Single
Assay type: toxicity, organism-based, Sprague-Dawley
Design: regimen Single, gender Male, age 6 weeks
Settings: in vivo, ip, route intraperitoneal injection; for APTT / Bas / Eos / Fbg / Hb / Ht / Lym / MCH / MCHC / MCV / Mono / Neu / PT / Plat / RBC / Ret / WBC: tissue Blood; for KIDNEY_L / KIDNEY_R / KIDNEY_TOTAL: tissue Kidney; for LIVER: tissue Liver; for A/G / ALP / ALT / AST / BUN / CRE / Ca / Cl / DBIL / GLC / IP / K / LDH / Na / PL / RALB / TBIL / TC / TG / TP / gamma-GTP: tissue Plasma
[1] = 0 mg/kg, 3 h, dose level Control
[2] = 0 mg/kg, 6 h, dose level Control
[3] = 0 mg/kg, 9 h, dose level Control
[4] = 0 mg/kg, 24 h, dose level Control

## C[C@@H]1NC(=O)[C@H](C[C@@](C)(O)CO)NC(=O)[C@@H]2Cc3c([nH]c4ccccc34)SC[C@H](NC(=O)[C@@H]([C@H](C)O)NC1=O)C(=O)N1C[C@@H](O)C[C@H]1C(=O)N[C@@H](C)C(=O)N2 [PHALLOIDIN] (cyclo(A[dT]C[cisHyp]A[Trp(2-yl)][Leu(4R-OH,5-OH)]); thioether 3-6)
[1]
  TERMINAL_BW: 206 g
  APTT: 23.6 s
  Bas: 0%
  Eos: 0.2%
  Fbg: 283.8 mg/dL
  Hb: 12.9 g/dL
  Ht: 40.5%
  Lym: 73.8%
  MCH: 20.1 pg
  MCHC: 32%
  MCV: 62.8 fL
  Mono: 2.4%
  Neu: 22.8%
  PT: 16.1 s
  Plat: 112.9 x10_4/uL
  RBC: 645 x10_4/ul
  Ret: 7.5%
  WBC: 74.9 x10_2/uL
  KIDNEY_L: 0.9 g
  KIDNEY_R: 0.9 g
  KIDNEY_TOTAL: 1.8 g
  LIVER: 8.6 g
  A/G: 1.2
  ALP: 1620.6 IU/L
  ALT: 45.2 IU/L
  AST: 76.4 IU/L
  BUN: 11.2 mg/dL
  CRE: 0.2 mg/dL
  Ca: 10.4 mg/dL
  Cl: 108.6 meq/L
  DBIL: 0 mg/dL
  GLC: 187.8 mg/dL
  IP: 8.4 mg/dL
  K: 3.8 meq/L
  LDH: 165.2 IU/L
  Na: 141.8 meq/L
  PL: 132 mg/dL
  RALB: 2.8 g/dL
  TBIL: 0 mg/dL
  TC: 81 mg/dL
  TG: 66.2 mg/dL
  TP: 5.2 g/dL
  gamma-GTP: 1 IU/L
[2]
  TERMINAL_BW: 208.8 g
  APTT: 22.5 s
  Bas: 0%
  Eos: 0.4%
  Fbg: 305.6 mg/dL
  Hb: 12.5 g/dL
  Ht: 38.7%
  Lym: 79.6%
  MCH: 20.4 pg
  MCHC: 32.2%
  MCV: 63.4 fL
  Mono: 1.8%
  Neu: 17.2%
  PT: 16 s
  Plat: 126.1 x10_4/uL
  RBC: 611.2 x10_4/ul
  Ret: 7.3%
  WBC: 94.6 x10_2/uL
  KIDNEY_L: 0.9 g
  KIDNEY_R: 0.9 g
  KIDNEY_TOTAL: 1.8 g
  LIVER: 9.1 g
  A/G: 1.2
  ALP: 1368 IU/L
  ALT: 38 IU/L
  AST: 69 IU/L
  BUN: 15.6 mg/dL
  CRE: 0.2 mg/dL
  Ca: 10.5 mg/dL
  Cl: 106.2 meq/L
  DBIL: 0 mg/dL
  GLC: 195.8 mg/dL
  IP: 7.8 mg/dL
  K: 4.2 meq/L
  LDH: 168.6 IU/L
  Na: 141.2 meq/L
  PL: 137 mg/dL
  RALB: 2.8 g/dL
  TBIL: 0 mg/dL
  TC: 82 mg/dL
  TG: 63 mg/dL
  TP: 5.2 g/dL
  gamma-GTP: 1.4 IU/L
[3]
  TERMINAL_BW: 208.4 g
  APTT: 22.5 s
  Bas: 0%
  Eos: 0.4%
  Fbg: 290.4 mg/dL
  Hb: 12.5 g/dL
  Ht: 39.2%
  Lym: 79.4%
  MCH: 20.4 pg
  MCHC: 31.9%
  MCV: 63.8 fL
  Mono: 1.6%
  Neu: 18%
  PT: 15.9 s
  Plat: 120.7 x10_4/uL
  RBC: 613.6 x10_4/ul
  Ret: 7.1%
  WBC: 83.1 x10_2/uL
  KIDNEY_L: 0.9 g
  KIDNEY_R: 1 g
  KIDNEY_TOTAL: 1.9 g
  LIVER: 9.2 g
  A/G: 1.2
  ALP: 1788.6 IU/L
  ALT: 45.2 IU/L
  AST: 75.4 IU/L
  BUN: 13.4 mg/dL
  CRE: 0.2 mg/dL
  Ca: 10.5 mg/dL
  Cl: 105 meq/L
  DBIL: 0 mg/dL
  GLC: 202.8 mg/dL
  IP: 7.7 mg/dL
  K: 4.3 meq/L
  LDH: 145.6 IU/L
  Na: 140.8 meq/L
  PL: 134.8 mg/dL
  RALB: 2.9 g/dL
  TBIL: 0.004 mg/dL
  TC: 79 mg/dL
  TG: 71.2 mg/dL
  TP: 5.3 g/dL
  gamma-GTP: 1.4 IU/L
[4]
  TERMINAL_BW: 216 g
  APTT: 22.7 s
  Bas: 0%
  Eos: 0.6%
  Fbg: 321.6 mg/dL
  Hb: 12.3 g/dL
  Ht: 38.4%
  Lym: 83.8%
  MCH: 20.3 pg
  MCHC: 32.1%
  MCV: 63.4 fL
  Mono: 1.6%
  Neu: 13.4%
  PT: 16 s
  Plat: 120 x10_4/uL
  RBC: 606.2 x10_4/ul
  Ret: 7.7%
  WBC: 76.3 x10_2/uL
  KIDNEY_L: 1 g
  KIDNEY_R: 1 g
  KIDNEY_TOTAL: 2 g
  LIVER: 9.4 g
  A/G: 1.2
  ALP: 1563.4 IU/L
  ALT: 40.8 IU/L
  AST: 69 IU/L
  BUN: 14 mg/dL
  CRE: 0.2 mg/dL
  Ca: 10.5 mg/dL
  Cl: 105.4 meq/L
  DBIL: 0.002 mg/dL
  GLC: 196 mg/dL
  IP: 8.9 mg/dL
  K: 3.9 meq/L
  LDH: 182.4 IU/L
  Na: 141.6 meq/L
  PL: 144.2 mg/dL
  RALB: 2.9 g/dL
  TBIL: 0.002 mg/dL
  TC: 85.6 mg/dL
  TG: 55.4 mg/dL
  TP: 5.3 g/dL
  gamma-GTP: 1.8 IU/L
1 mg/kg, 3 h, dose level High
  TERMINAL_BW: 211.9 g
  APTT: 21.8 s
  Bas: 0%
  Eos: 0%
  Fbg: 259.6 mg/dL
  Hb: 12.4 g/dL
  Ht: 39.5%
  Lym: 73.8%
  MCH: 20 pg
  MCHC: 31.5%
  MCV: 63.3 fL
  Mono: 2.6%
  Neu: 22.6%
  PT: 15.9 s
  Plat: 108.1 x10_4/uL
  RBC: 623.8 x10_4/ul
  Ret: 7.7%
  WBC: 66 x10_2/uL
  KIDNEY_L: 1 g
  KIDNEY_R: 1 g
  KIDNEY_TOTAL: 2 g
  LIVER: 9.1 g
  A/G: 1.2
  ALP: 1810.8 IU/L
  ALT: 49.6 IU/L
  AST: 110 IU/L
  BUN: 12 mg/dL
  CRE: 0.2 mg/dL
  Ca: 10.4 mg/dL
  Cl: 107.8 meq/L
  DBIL: 0.006 mg/dL
  GLC: 184.8 mg/dL
  IP: 8.6 mg/dL
  K: 4 meq/L
  LDH: 235.2 IU/L
  Na: 139.6 meq/L
  PL: 125.8 mg/dL
  RALB: 2.7 g/dL
  TBIL: 0.012 mg/dL
  TC: 78.6 mg/dL
  TG: 36.2 mg/dL
  TP: 4.9 g/dL
  gamma-GTP: 1.6 IU/L
1 mg/kg, 6 h, dose level High
  TERMINAL_BW: 210 g
  APTT: 22.3 s
  Bas: 0%
  Eos: 0.2%
  Fbg: 286.6 mg/dL
  Hb: 12.5 g/dL
  Ht: 39.2%
  Lym: 79.6%
  MCH: 20 pg
  MCHC: 31.9%
  MCV: 62.6 fL
  Mono: 2%
  Neu: 17.4%
  PT: 15.9 s
  Plat: 111.9 x10_4/uL
  RBC: 626 x10_4/ul
  Ret: 6.8%
  WBC: 90.8 x10_2/uL
  KIDNEY_L: 0.9 g
  KIDNEY_R: 1 g
  KIDNEY_TOTAL: 1.9 g
  LIVER: 9.2 g
  A/G: 1.3
  ALP: 1613.8 IU/L
  ALT: 56.6 IU/L
  AST: 114.6 IU/L
  BUN: 14.8 mg/dL
  CRE: 0.2 mg/dL
  Ca: 10.3 mg/dL
  Cl: 106.2 meq/L
  DBIL: 0 mg/dL
  GLC: 186.4 mg/dL
  IP: 7.6 mg/dL
  K: 3.9 meq/L
  LDH: 232 IU/L
  Na: 142 meq/L
  PL: 141 mg/dL
  RALB: 2.9 g/dL
  TBIL: 0.004 mg/dL
  TC: 90.4 mg/dL
  TG: 65.8 mg/dL
  TP: 5.1 g/dL
  gamma-GTP: 1.8 IU/L
1 mg/kg, 9 h, dose level High
  TERMINAL_BW: 208.3 g
  APTT: 20.7 s
  Bas: 0%
  Eos: 0.4%
  Fbg: 291.6 mg/dL
  Hb: 12.3 g/dL
  Ht: 39.3%
  Lym: 80.6%
  MCH: 20.2 pg
  MCHC: 31.4%
  MCV: 64.4 fL
  Mono: 2.4%
  Neu: 15.4%
  PT: 15.3 s
  Plat: 114.2 x10_4/uL
  RBC: 610.4 x10_4/ul
  Ret: 7.8%
  WBC: 75 x10_2/uL
  KIDNEY_L: 0.9 g
  KIDNEY_R: 0.9 g
  KIDNEY_TOTAL: 1.9 g
  LIVER: 9.2 g
  A/G: 1.3
  ALP: 1636.4 IU/L
  ALT: 56.8 IU/L
  AST: 109.6 IU/L
  BUN: 12.8 mg/dL
  CRE: 0.2 mg/dL
  Ca: 10.4 mg/dL
  Cl: 106.4 meq/L
  DBIL: 0 mg/dL
  GLC: 180.4 mg/dL
  IP: 7.9 mg/dL
  K: 4.3 meq/L
  LDH: 158.2 IU/L
  Na: 140.4 meq/L
  PL: 144 mg/dL
  RALB: 2.9 g/dL
  TBIL: 0.008 mg/dL
  TC: 97.4 mg/dL
  TG: 63.2 mg/dL
  TP: 5.1 g/dL
  gamma-GTP: 1.6 IU/L
1 mg/kg, 24 h, dose level High
  TERMINAL_BW: 220.3 g
  APTT: 21.7 s
  Bas: 0%
  Eos: 0.8%
  Fbg: 304.4 mg/dL
  Hb: 12.5 g/dL
  Ht: 39.6%
  Lym: 81.2%
  MCH: 20.3 pg
  MCHC: 31.7%
  MCV: 64 fL
  Mono: 1.8%
  Neu: 15.6%
  PT: 15.4 s
  Plat: 119.9 x10_4/uL
  RBC: 619.8 x10_4/ul
  Ret: 7.6%
  WBC: 71.5 x10_2/uL
  KIDNEY_L: 1 g
  KIDNEY_R: 1 g
  KIDNEY_TOTAL: 2.1 g
  LIVER: 10.2 g
  A/G: 1.2
  ALP: 1849.4 IU/L
  ALT: 45 IU/L
  AST: 81.6 IU/L
  BUN: 15.2 mg/dL
  CRE: 0.1 mg/dL
  Ca: 10.7 mg/dL
  Cl: 106.8 meq/L
  DBIL: 0.002 mg/dL
  GLC: 189.2 mg/dL
  IP: 8.2 mg/dL
  K: 4.4 meq/L
  LDH: 191 IU/L
  Na: 141.6 meq/L
  PL: 147.2 mg/dL
  RALB: 2.8 g/dL
  TBIL: 0.002 mg/dL
  TC: 95.8 mg/dL
  TG: 74 mg/dL
  TP: 5.3 g/dL
  gamma-GTP: 1.6 IU/L
